Assay results from patent publication US10285982B2, “3-(1H-pyrrolo[2,3-B]pyridin-2-yl)-1H-pyrazolo[3,4-C]pyridines and therapeutic uses thereof” (Samumed, LLC, priority 2015, dated 2019).

Tested on: IL-6 (THP-1 cells)
Test: IL-6 inhibition in LPS-stimulated THP-1 cells (HTRF)
Assay type: cell-based
Conditions: Homo sapiens; for EC50: IL-6 in THP-1 cells, LPS 500 ng/mL, 22 hours; for inhibition at 10 µM: given where EC50 >10 μM, IL-6, THP-1 cells, LPS, read-out: percent inhibition at 10 μM
Description: Human monocyte cell line (THP-1 cells; Catalog # TIB-202, ATCC, Manassas, Va.) were cultured in Roswell Park Memorial Institute (RPMI) 1640 Medium (Catalog #21870-100, Buffalo, N.Y.) with 1% L-glutamine, 1% HEPES, 1% Sodium Pyruvate, 2% Sodium Bicarbonate supplemented with 100 units/mL penicillin, 50 μg/mL streptomycin, 2-mercaptoethanol (0.05 mM) [basal medium] and 10% fetal bovine serum (Catalog #16140089, Life Technologies, Carlsbad, Calif.) at 37° C. and 5% CO2.
THP-1 cells were cultured in basal media with 1% FBS for 24 hours before the start of the assay. Each compound was dissolved in DMSO as a 10 mM stock and used to prepare compound source plates. Serial dilution (1:3, 10-point dose-response curves starting from 10 μM) and compound transfer was performed using the ECHO 550 (Labcyte, Sunnyvale, Calif.) into 384-well white low volume assay plates (Greiner Bio-One) with appropriate DMSO backfill for a final DMSO concentration of 0.1%. THP-1 cells were plated at 5000 cells/well in the 384-well plates and incubated at 37° C. for 2 h. 500 ng/mL of LPS was added after 2 hours and cells were incubated for another 22 hours at 37° C. Plates were spun in a centrifuge for 1 minute at […] and a mixture of anti-IL6 XL665, and anti-IL6 Cryptate diluted in reconstitution buffer (Cisbio Inc.) was added to each well. Following incubation for 3 hrs at room temperature, Homogeneous Time-Resolved Fluorescence (HTRF) was measured using the Envision (Perkin Elmer) at 665 nm and […]. The ratio of fluorescence at 665 nm to 620 nm was used as a readout for IL6 quantification. All samples were processed in duplicate. Readings were normalized to DMSO treated cells and normalized activities were utilized for EC50 calculations using the dose-response log (inhibitor) vs. response-variable slope (four parameters) nonlinear regression feature available in GraphPad Prism 5.0 (or Dotmatics). For EC50 of >10 μM, the percent inhibition at 10 μM is provided.

SMILES	EC50	inhibition at 10 µM
Cc1ccncc1-c1cc2c(-c3cc4c(-c5ccncc5)ccnc4[nH]3)n[nH]c2cn1 [Compound 117, 5-(4-Methylpyridin-3-yl)-3-(4-(pyridin-4-yl)-1H-pyrrolo[2,3-b]pyridin-2-yl)-1H-pyrazolo[3,4-c]pyridine]	> 10 µM	15.9%
c1ccc(-c2cc3c(-c4cc5c(-c6ccncc6)ccnc5[nH]4)n[nH]c3cn2)nc1 [Compound 140, 5-(Pyridin-2-yl)-3-(4-(pyridin-4-yl)-1H-pyrrolo[2,3-b]pyridin-2-yl)-1H-pyrazolo[3,4-c]pyridine]	> 10 µM	23.5%
O=C(Nc1cncc(-c2cc3c(-c4cc5c(-c6cccc(F)c6)ccnc5[nH]4)n[nH]c3cn2)c1)c1ccccc1 [Compound 11, N-(5-(3-(4-(3-Fluorophenyl)-1H-pyrrolo[2,3-b]pyridin-2-yl)-1H-pyrazolo [3,4-c]pyridin-5-yl)pyridin-3-yl)benzamide]	> 10 µM	38.9%
c1cc(N2CCCCC2)c2cc(-c3n[nH]c4cnc(C5CCNCC5)cc34)[nH]c2n1 [Compound 601, 3-(4-(Piperidin-1-yl)-1H-pyrrolo[2,3-b]pyridin-2-yl)-5-(piperidin-4-yl)-1H-pyrazolo[3,4-c]pyridine]	> 10 µM	3%
O=C(Nc1cncc(-c2cc3c(-c4cc5c(N6CCCCC6)ccnc5[nH]4)n[nH]c3cn2)c1)C1CC1 [Compound 188, N-(5-(3-(4-(Piperidin-1-yl)-1H-pyrrolo[2,3-b]pyridin-2-yl)-1H-pyrazolo[3,4-c]pyridin-5-yl)pyridin-3-yl)cyclopropanecarboxamide]	> 10 µM	16.2%
CCCCC(=O)Nc1cncc(-c2cc3c(-c4cc5c(-c6ccccc6F)ccnc5[nH]4)n[nH]c3cn2)c1 [Compound 75, N-(5-(3-(4-(2-Fluorophenyl)-1H-pyrrolo[2,3-b]pyridin-2-yl)-1H-pyrazolo [3,4-c]pyridin-5-yl)pyridin-3-yl)pentanamide]	> 10 µM	0%
Fc1cccc(-c2ccnc3[nH]c(-c4n[nH]c5cnc(-c6cccnc6)cc45)cc23)c1 [Compound 4, 3-(4-(3-Fluorophenyl)-1H-pyrrolo[2,3-b]pyridin-2-yl)-5-(pyridin-3-yl)-1H-pyrazolo[3,4-c]pyridine]	> 10 µM	21.3%
CC(C)CC(=O)Nc1cncc(-c2cc3c(-c4cc5c(-c6ccc(F)cc6)ccnc5[nH]4)n[nH]c3cn2)c1 [Compound 30, N-(5-(3-(4-(4-Fluorophenyl)-1H-pyrrolo[2,3-b]pyridin-2-yl)-1H-pyrazolo [3,4-c]pyridin-5-yl)pyridin-3-yl)-3-methylbutanamide]	> 10 µM	35.6%
O=C(Cc1ccccc1)Nc1cncc(-c2cc3c(-c4cc5cccnc5[nH]4)n[nH]c3cn2)c1 [Compound 262, N-(5-(3-(1H-Pyrrolo[2,3-b]pyridin-2-yl)-1H-pyrazolo[3,4-c]pyridin-5-yl)pyridin-3-yl)-2-phenylacetamide]	> 10 µM	26.7%
Oc1cncc(-c2cc3c(-c4cc5c(-c6ccc(F)cc6)ccnc5[nH]4)n[nH]c3cn2)c1 [Compound 533, 5-(3-(4-(4-Fluorophenyl)-1H-pyrrolo[2,3-b]pyridin-2-yl)-1H-pyrazolo[3,4-c]pyridin-5-yl)pyridin-3-ol]	> 10 µM	7.2%
c1csc(-c2ccnc3[nH]c(-c4n[nH]c5cnc(-c6cncc(OC7CCCCC7)c6)cc45)cc23)c1 [Compound 703, 5-(5-(Cyclohexyloxy)pyridin-3-yl)-3-(4-(thiophen-2-yl)-1H-pyrrolo[2,3-b]pyridin-2-yl)-1H-pyrazolo[3,4-c]pyridine]	> 10 µM	43.3%
Cn1cc(-c2cc3c(-c4cc5cccnc5[nH]4)n[nH]c3cn2)cn1 [Compound 652, 5-(1-Methyl-1H-pyrazol-4-yl)-3-(1H-pyrrolo[2,3-b]pyridin-2-yl)-1H-pyrazolo[3,4-c]pyridine]	> 10 µM	15.2%
O=C(Nc1cncc(-c2cc3c(-c4cc5cccnc5[nH]4)n[nH]c3cn2)c1)C1CCCCC1 [Compound 275, N-(5-(3-(1H-Pyrrolo[2,3-b]pyridin-2-yl)-1H-pyrazolo[3,4-c]pyridin-5-yl)pyridin-3-yl)cyclohexanecarboxamide]	> 10 µM	24.7%
CN(C)Cc1cncc(-c2cc3c(-c4cc5c(-c6ccccc6F)ccnc5[nH]4)n[nH]c3cn2)c1 [Compound 69, 1-(5-(3-(4-(2-Fluorophenyl)-1H-pyrrolo[2,3-b]pyridin-2-yl)-1H-pyrazolo [3,4-c]pyridin-5-yl)pyridin-3-yl)-N,N-dimethylmethanamine]	> 10 µM	17.4%
Fc1cccc(-c2ccnc3[nH]c(-c4n[nH]c5cnc(-c6cncc(OCc7ccccc7)c6)cc45)cc23)c1 [Compound 518, 5-(5-(Benzyloxy)pyridin-3-yl)-3-(4-(3-fluorophenyl)-1H-pyrrolo[2,3-b]pyridin-2-yl)-1H-pyrazolo[3,4-c]pyridine]	> 10 µM	0%
CC(C)CC(=O)Nc1cncc(-c2cc3c(-c4cc5c(-c6ccncc6)ccnc5[nH]4)n[nH]c3cn2)c1 [Compound 114, 3-Methyl-N-(5-(3-(4-(pyridin-4-yl)-1H-pyrrolo[2,3-b]pyridin-2-yl)-1H-pyrazolo[3,4-c]pyridin-5-yl)pyridin-3-yl)butanamide]	> 10 µM	13%
CN(C)CCNc1cc(F)cc(-c2ccnc3[nH]c(-c4n[nH]c5cnc(-c6ccncc6)cc45)cc23)c1 [Compound 466, N^1-(3-Fluoro-5-(2-(5-(pyridin-4-yl)-1H-pyrazolo[3,4-c]pyridin-3-yl)-1H-pyrrolo[2,3-b]pyridin-4-yl)phenyl)-N^2,N^2-dimethylethane-1,2-diamine]	> 10 µM	5.9%
c1cc(N2CCCCC2)c2cc(-c3n[nH]c4cnc(-c5cncc(CN6CCCC6)c5)cc34)[nH]c2n1 [Compound 182, 3-(4-(Piperidin-1-yl)-1H-pyrrolo[2,3-b]pyridin-2-yl)-5-(5-(pyrrolidin-1-ylmethyl)pyridin-3-yl)-1H-pyrazolo[3,4-c]pyridine]	> 10 µM	39%
Nc1cncc(-c2cc3c(-c4cc5c(-c6ccoc6)ccnc5[nH]4)n[nH]c3cn2)c1 [Compound 311, 5-(3-(4-(Furan-3-yl)-1H-pyrrolo[2,3-b]pyridin-2-yl)-1H-pyrazolo[3,4-c]pyridin-5-yl)pyridin-3-amine]	> 10 µM	36.3%
CN(C)CCOc1cncc(-c2cc3c(-c4cc5c(-c6cccnc6)ccnc5[nH]4)n[nH]c3cn2)c1 [Compound 563, N,N-Dimethyl-2-((5-(3-(4-(pyridin-3-yl)-1H-pyrrolo[2,3-b]pyridin-2-yl)-1H-pyrazolo[3,4-c]pyridin-5-yl)pyridin-3-yl)oxy)ethan-1-amine]	> 10 µM	15%
CC(C)C(=O)Nc1cncc(-c2cc3c(-c4cc5c(-c6ccc(F)cc6)ccnc5[nH]4)n[nH]c3cn2)c1 [Compound 37, N-(5-(3-(4-(4-Fluorophenyl)-1H-pyrrolo[2,3-b]pyridin-2-yl)-1H-pyrazolo [3,4-c]pyridin-5-yl)pyridin-3-yl)isobutyramide]	> 10 µM	25.4%
O=C(Nc1cncc(-c2cc3c(-c4cc5c(-c6ccc(F)cc6)ccnc5[nH]4)n[nH]c3cn2)c1)C1CCC1 [Compound 49, N-(5-(3-(4-(4-Fluorophenyl)-1H-pyrrolo[2,3-b]pyridin-2-yl)-1H-pyrazolo [3,4-c]pyridin-5-yl)pyridin-3-yl)cyclobutanecarboxamide]	> 10 µM	26.1%
CC(C)(C)C(=O)Nc1cncc(-c2cc3c(-c4cc5c(-c6cccnc6)ccnc5[nH]4)n[nH]c3cn2)c1 [Compound 92, N-(5-(3-(4-(Pyridin-3-yl)-1H-pyrrolo[2,3-b]pyridin-2-yl)-1H-pyrazolo[3,4-c]pyridin-5-yl)pyridin-3-yl)pivalamide]	> 10 µM	23.3%
O=C(Nc1cncc(-c2cc3c(-c4cc5c(-c6ccncc6)ccnc5[nH]4)n[nH]c3cn2)c1)C1CCCCC1 [Compound 135, N-(5-(3-(4-(Pyridin-4-yl)-1H-pyrrolo[2,3-b]pyridin-2-yl)-1H-pyrazolo[3,4-c]pyridin-5-yl)pyridin-3-yl)cyclohexanecarboxamide]	> 10 µM	17.8%
O=C(Cc1ccccc1)Nc1cncc(-c2cc3c(-c4cc5c(-c6ccncc6)ccnc5[nH]4)n[nH]c3cn2)c1 [Compound 122, 2-Phenyl-N-(5-(3-(4-(pyridin-4-yl)-1H-pyrrolo[2,3-b]pyridin-2-yl)-1H-pyrazolo[3,4-c]pyridin-5-yl)pyridin-3-yl)acetamide]	> 10 µM	34.8%
